The text below walks through data of patent US11730712B2, “Functionalized long-chain hydrocarbon mono- and di-carboxylic acids and derivatives thereof, and their use for the prevention or treatment of disease” (ESPERVITA THERAPEUTICS, INC., priority 2021, dated 2023).

Several values for one entry are separate records, joined by “and”; a condition that tells them apart may be missing. Equal values may be shown once.

Common to all, as to experiment: Kinase assay, wild type kinases
What all share (format): biochemical

In one assay the target is MLCK/MYLK (Homo sapiens, UniProt Q15746). The following applies: compound 10 μM, 10 μM ATP, duplicate (Data 1, Data 2), >100 activation, <100 inhibition; for remaining activity at 10 µM: read-out: % Enzyme Activity (relative to DMSO controls), MLCK/MYLK.
In a further assay the target is T1, BMX/ETK (Homo sapiens, UniProt P51813).
T1 sequence (P51813 1-675): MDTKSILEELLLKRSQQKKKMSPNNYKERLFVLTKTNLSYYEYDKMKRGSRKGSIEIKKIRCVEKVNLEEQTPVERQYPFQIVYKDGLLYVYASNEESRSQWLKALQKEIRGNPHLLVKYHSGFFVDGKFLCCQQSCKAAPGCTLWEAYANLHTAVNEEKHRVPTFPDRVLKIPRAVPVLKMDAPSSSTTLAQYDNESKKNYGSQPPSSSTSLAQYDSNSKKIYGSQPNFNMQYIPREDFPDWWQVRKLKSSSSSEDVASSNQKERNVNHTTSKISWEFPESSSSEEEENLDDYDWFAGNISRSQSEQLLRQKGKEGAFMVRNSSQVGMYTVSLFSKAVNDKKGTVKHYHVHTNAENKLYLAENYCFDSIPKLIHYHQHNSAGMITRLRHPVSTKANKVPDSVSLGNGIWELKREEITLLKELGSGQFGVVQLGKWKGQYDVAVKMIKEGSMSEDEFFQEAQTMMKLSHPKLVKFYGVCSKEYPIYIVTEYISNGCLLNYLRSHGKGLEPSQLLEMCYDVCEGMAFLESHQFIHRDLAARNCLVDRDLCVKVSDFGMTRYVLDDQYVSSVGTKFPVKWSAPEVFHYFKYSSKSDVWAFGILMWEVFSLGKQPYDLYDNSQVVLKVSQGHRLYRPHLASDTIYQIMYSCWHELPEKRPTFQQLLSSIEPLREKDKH
The following applies: compound 10 μM, 10 μM ATP, duplicate (Data 1, Data 2), >100 activation, <100 inhibition; for remaining activity at 10 µM: read-out: % Enzyme Activity (relative to DMSO controls), BMX/ETK.

Another assay deals with MELK (Homo sapiens, UniProt Q14680). Conditions: compound 10 μM, 10 μM ATP, duplicate (Data 1, Data 2), >100 activation, <100 inhibition; for remaining activity at 10 µM: read-out: % Enzyme Activity (relative to DMSO controls), MELK.
A further assay concerns the target c-Kit (Homo sapiens, UniProt P10721). The following applies: compound 10 μM, 10 μM ATP, duplicate (Data 1, Data 2), >100 activation, <100 inhibition; for remaining activity at 10 µM: read-out: % Enzyme Activity (relative to DMSO controls), c-Kit.
The target in another assay is MAPKAPK2 (Homo sapiens, UniProt P49137). Conditions: compound 10 μM, 10 μM ATP, duplicate (Data 1, Data 2), >100 activation, <100 inhibition; for remaining activity at 10 µM: read-out: % Enzyme Activity (relative to DMSO controls), MAPKAPK2.
The target in the next assay is PIM3 (Homo sapiens, UniProt Q86V86). Conditions: compound 10 μM, 10 μM ATP, duplicate (Data 1, Data 2), >100 activation, <100 inhibition; for remaining activity at 10 µM: read-out: % Enzyme Activity (relative to DMSO controls), PIM3.
In the next assay the target is CAMK2g (Homo sapiens, UniProt Q13555). Conditions: compound 10 μM, 10 μM ATP, duplicate (Data 1, Data 2), >100 activation, <100 inhibition; for remaining activity at 10 µM: read-out: % Enzyme Activity (relative to DMSO controls), CAMK2g.
The target in another assay is LIMK1 (Homo sapiens, UniProt P53667). Conditions: compound 10 μM, 10 μM ATP, duplicate (Data 1, Data 2), >100 activation, <100 inhibition; for remaining activity at 10 µM: read-out: % Enzyme Activity (relative to DMSO controls), LIMK1.
In the next assay the target is T2, DDR2 (Homo sapiens, UniProt Q16832).
T2 sequence (Q16832 22-855): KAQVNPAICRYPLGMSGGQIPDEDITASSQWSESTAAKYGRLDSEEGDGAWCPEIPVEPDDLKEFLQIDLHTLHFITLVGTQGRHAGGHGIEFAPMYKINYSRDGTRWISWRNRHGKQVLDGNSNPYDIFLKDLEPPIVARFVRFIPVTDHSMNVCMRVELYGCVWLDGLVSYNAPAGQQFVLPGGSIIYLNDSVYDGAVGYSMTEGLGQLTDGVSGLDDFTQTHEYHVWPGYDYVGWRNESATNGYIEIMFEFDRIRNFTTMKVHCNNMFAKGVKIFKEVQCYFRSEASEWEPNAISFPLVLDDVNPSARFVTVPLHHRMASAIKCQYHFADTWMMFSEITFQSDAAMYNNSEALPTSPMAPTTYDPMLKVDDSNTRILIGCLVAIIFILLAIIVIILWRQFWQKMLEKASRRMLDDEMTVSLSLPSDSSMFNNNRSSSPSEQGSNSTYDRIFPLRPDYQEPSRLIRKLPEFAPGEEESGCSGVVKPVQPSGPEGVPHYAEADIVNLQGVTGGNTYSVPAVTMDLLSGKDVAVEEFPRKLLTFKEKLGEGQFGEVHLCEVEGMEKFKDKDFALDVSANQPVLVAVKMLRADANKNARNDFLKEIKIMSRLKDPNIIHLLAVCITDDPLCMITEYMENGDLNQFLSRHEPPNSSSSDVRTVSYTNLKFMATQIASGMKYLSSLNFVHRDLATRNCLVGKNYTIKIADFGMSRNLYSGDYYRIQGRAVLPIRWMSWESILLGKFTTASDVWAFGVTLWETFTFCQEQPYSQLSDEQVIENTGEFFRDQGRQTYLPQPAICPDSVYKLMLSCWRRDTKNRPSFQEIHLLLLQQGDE
Conditions: compound 10 μM, 10 μM ATP, duplicate (Data 1, Data 2), >100 activation, <100 inhibition; for remaining activity at 10 µM: read-out: % Enzyme Activity (relative to DMSO controls), DDR2.

Chain of c-Kit (P10721 26-976): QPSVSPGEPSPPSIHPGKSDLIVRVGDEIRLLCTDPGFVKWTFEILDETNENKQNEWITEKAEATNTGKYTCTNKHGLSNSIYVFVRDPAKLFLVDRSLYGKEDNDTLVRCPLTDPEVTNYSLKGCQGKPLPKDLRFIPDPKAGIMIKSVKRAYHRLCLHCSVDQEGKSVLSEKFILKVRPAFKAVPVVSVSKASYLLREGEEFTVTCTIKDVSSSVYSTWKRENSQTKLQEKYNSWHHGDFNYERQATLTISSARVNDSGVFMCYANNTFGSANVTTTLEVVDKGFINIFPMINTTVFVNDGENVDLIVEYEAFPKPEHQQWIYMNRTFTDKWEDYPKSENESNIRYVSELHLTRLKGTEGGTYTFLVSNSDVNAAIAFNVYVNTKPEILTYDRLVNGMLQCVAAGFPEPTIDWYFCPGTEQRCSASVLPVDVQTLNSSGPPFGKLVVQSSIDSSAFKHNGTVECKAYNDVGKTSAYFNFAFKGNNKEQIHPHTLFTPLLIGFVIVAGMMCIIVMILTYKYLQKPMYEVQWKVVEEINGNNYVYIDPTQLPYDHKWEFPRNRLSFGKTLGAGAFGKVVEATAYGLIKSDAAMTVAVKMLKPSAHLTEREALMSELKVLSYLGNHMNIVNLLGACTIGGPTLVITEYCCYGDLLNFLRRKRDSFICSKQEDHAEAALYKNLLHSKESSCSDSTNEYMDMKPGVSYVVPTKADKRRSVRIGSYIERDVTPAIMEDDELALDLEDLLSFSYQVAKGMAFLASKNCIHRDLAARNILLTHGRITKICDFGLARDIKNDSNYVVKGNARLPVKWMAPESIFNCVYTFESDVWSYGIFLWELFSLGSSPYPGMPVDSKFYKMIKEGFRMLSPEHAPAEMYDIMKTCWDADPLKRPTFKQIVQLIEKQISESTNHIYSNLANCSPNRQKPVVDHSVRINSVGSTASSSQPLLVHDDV
Chain of LIMK1 (P53667 whole entry, species assumed): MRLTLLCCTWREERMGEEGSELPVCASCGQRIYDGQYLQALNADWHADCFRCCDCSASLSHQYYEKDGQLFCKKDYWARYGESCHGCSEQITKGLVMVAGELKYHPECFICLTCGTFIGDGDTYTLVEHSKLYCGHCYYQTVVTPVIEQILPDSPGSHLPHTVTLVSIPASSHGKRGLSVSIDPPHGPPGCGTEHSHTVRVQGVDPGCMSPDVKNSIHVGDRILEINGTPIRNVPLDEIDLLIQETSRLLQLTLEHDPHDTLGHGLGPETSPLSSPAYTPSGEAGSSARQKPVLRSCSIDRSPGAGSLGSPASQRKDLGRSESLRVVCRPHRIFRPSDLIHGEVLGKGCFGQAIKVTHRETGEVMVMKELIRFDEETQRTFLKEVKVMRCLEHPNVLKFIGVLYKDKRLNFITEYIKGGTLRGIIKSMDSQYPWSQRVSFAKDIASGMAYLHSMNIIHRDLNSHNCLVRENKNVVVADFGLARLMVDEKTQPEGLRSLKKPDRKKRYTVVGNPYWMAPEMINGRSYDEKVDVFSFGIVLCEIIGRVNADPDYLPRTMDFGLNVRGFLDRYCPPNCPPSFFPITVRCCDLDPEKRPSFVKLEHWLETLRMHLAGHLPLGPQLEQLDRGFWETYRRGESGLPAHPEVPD
Chain of MELK (Q14680 whole entry, species assumed): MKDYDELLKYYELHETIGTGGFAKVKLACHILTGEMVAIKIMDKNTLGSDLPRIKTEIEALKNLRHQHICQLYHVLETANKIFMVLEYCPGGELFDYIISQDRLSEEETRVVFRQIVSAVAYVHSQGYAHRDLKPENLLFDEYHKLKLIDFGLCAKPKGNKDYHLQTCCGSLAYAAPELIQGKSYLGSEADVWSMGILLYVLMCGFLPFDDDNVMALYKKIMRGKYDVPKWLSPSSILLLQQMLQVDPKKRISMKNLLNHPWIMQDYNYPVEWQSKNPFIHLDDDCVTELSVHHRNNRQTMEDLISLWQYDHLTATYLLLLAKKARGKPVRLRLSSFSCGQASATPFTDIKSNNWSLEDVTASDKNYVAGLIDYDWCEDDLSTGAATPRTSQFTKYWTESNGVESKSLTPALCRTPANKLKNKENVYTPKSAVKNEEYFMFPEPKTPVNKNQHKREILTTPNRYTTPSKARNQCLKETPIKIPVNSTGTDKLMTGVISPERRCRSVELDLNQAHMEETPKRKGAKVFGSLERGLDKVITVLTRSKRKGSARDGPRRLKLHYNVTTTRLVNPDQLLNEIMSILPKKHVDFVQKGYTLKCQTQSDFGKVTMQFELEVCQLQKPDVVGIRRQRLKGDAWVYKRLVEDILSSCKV
Chain of MAPKAPK2 (P49137 whole entry, species assumed): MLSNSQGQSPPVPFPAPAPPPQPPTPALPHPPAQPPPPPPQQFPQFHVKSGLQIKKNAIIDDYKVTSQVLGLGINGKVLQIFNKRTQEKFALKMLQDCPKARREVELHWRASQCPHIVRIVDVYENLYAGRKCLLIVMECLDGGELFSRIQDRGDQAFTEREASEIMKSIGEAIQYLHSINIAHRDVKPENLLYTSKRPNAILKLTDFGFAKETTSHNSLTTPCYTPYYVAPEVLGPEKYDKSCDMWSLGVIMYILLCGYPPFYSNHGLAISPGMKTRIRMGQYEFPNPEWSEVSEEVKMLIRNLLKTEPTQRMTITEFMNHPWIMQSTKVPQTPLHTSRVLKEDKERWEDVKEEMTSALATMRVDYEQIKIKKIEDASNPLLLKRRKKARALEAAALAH

For `CC(C)(CCCCc1ccc(CCCCC(C)(C)C(=O)O)cc1)C(=O)O` [Compound I-1, 6-[4-(5-carboxy-5-methylhexyl)-phenyl]-2,2-dimethylhexanoic acid], the remaining activity at 10 µM worked out at 110% at MLCK/MYLK; 55% on BMX/ETK; 110% at MELK; 85.5% on c-Kit; 93.1% on MAPKAPK2; 87.9% on PIM3. The figures for the remaining activity at 10 µM at CAMK2g, on LIMK1 and on DDR2 were 60.6%, 81% and 79.8%, respectively.

With `CC(C)(CCCCc1ccc(CCCCC(C)(C)C(=O)SCCNC(=O)CCNC(=O)[C@H](O)C(C)(C)COP(=O)(O)OP(=O)(O)OC[C@H]2O[C@@H](n3cnc4c(N)ncnc43)[C@H](O)[C@@H]2OP(=O)(O)O)cc1)C(=O)O` [Compound I-1-CoA, 6-[4-(5-carboxy-5-methylhexyl)-phenyl]-2,2-dimethylhexanoic acid Coenzyme A ester], the “% Enzyme Activity (relative to DMSO controls), MLCK/MYLK” value at MLCK/MYLK was 2.06% and −0.71%. Moreover, on BMX/ETK, the “% Enzyme Activity (relative to DMSO controls), BMX/ETK” value is 49.55% and 47.76%. Moreover, the “% Enzyme Activity (relative to DMSO controls), MELK” value on MELK was 23.02% and 21.99%. Also, the “% Enzyme Activity (relative to DMSO controls), c-Kit” value at c-Kit was 73.56% and 73.24%. At MAPKAPK2, the “% Enzyme Activity (relative to DMSO controls), MAPKAPK2” value was 85.04% and 84.66%. Besides, the “% Enzyme Activity (relative to DMSO controls), PIM3” value on PIM3 was 73.92% and 70.32%. Also, the “% Enzyme Activity (relative to DMSO controls), CAMK2g” value at CAMK2g is 53.91% and 53.05%. Moreover, the “% Enzyme Activity (relative to DMSO controls), LIMK1” value on LIMK1 is 77.88% and 76.61%. Besides, the “% Enzyme Activity (relative to DMSO controls), DDR2” value at DDR2 was 88.28% and 79.94%.

With `CC(C)(CCCCc1cccc(CCCCC(C)(C)C(=O)O)c1)C(=O)O` [Compound I-32, 6-[3-(5-carboxy-5-methylhexyl)-phenyl]-2,2-dimethylhexanoic acid], the remaining activity at 10 µM was 106% at MLCK/MYLK; 53.7% at BMX/ETK; 114% at MELK; 73.6% on c-Kit; 91.7% on MAPKAPK2; 90% at PIM3. For the same compound, the figures for the remaining activity at 10 µM on CAMK2g, on LIMK1 and on DDR2 were 73.2%, 83.8% and 91.4%, respectively.

Take `CC(C)(CCCCc1cccc(CCCCC(C)(C)C(=O)SCCNC(=O)CCNC(=O)[C@H](O)C(C)(C)COP(=O)(O)OP(=O)(O)OC[C@H]2O[C@@H](n3cnc4c(N)ncnc43)[C@H](O)[C@@H]2OP(=O)(O)O)c1)C(=O)O` [Compound I-32-CoA, 6-[3-(5-Carboxy-5-methylhexyl)-phenyl]-2,2-dimethylhexanoic acid Coenzyme A Ester]: the “% Enzyme Activity (relative to DMSO controls), MLCK/MYLK” value on MLCK/MYLK is 3.21% and 1.59%. Also, the “% Enzyme Activity (relative to DMSO controls), BMX/ETK” value on BMX/ETK was 49.54% and 43.87%. Besides, the “% Enzyme Activity (relative to DMSO controls), MELK” value at MELK is 28.56% and 27.35%. Also, the “% Enzyme Activity (relative to DMSO controls), c-Kit” value on c-Kit is 49.53% and 49.21%. On MAPKAPK2, the “% Enzyme Activity (relative to DMSO controls), MAPKAPK2” value was 17.17% and 15.90%. The “% Enzyme Activity (relative to DMSO controls), PIM3” value at PIM3 was 51.10% and 43.67%. Moreover, the “% Enzyme Activity (relative to DMSO controls), CAMK2g” value on CAMK2g is 35.05% and 34.20%. Besides, the “% Enzyme Activity (relative to DMSO controls), LIMK1” value on LIMK1 is 47.31% and 45.01%. Further, the “% Enzyme Activity (relative to DMSO controls), DDR2” value on DDR2 was 29.98% and 25.40%.
